Test results: the C3SDB collision cross section collection
Several values for one entry are separate records, joined by “and”; a condition that tells them apart may be missing. Equal values may be shown once.

Conditions: instrument: DT, stepped-field

| Structure (SMILES) | collision cross section (N2) ([M+H]+) | collision cross section (N2) ([M+Na]+) |
| --- | --- | --- |
| CP(=O)(O)CCC(N)C(=O)O (stereo unspecified) [Glufosinate] | 140.15 Å² | 142.7 Å² |
| Oc1ccc(O)cc1 [Hydroquinone] | 128.79 Å² |  |
| O=C(O)[C@@H]1CCCCN1 [L-Pipecolic Acid] | 130.93 Å² |  |
| CCCCCCCCCCCCCCCCCCC(=O)OC[C@@H](O)COP(=O)([O-])OCC[N+](C)(C)C [LPC(19:0)] | 241.9 Å² |  |
| CCCCCCCCCCCC(=O)O[C@H](CC(=O)[O-])C[N+](C)(C)C [Lauroyl-L-carnitine] |  | 217.5 Å² |
| CCCCC/C=C\C[C@@H](O)/C=C/C=C/C=C\[C@@H](O)CCCC(=O)O [Leukotriene B4] |  | 196.05 Å² |
| CCCCC/C=C\C\C=C/C=C/C=C/[C@@H](SC[C@H](NC(=O)CC[C@H](N)C(=O)O)C(=O)NCC(=O)O)[C@@H](O)CCCC(=O)O [Leukotriene C4] | 257.4 Å² | 260.57 Å² |
| CCCCC[C@H](O)/C=C/C=C\C=C\C=C\[C@@H](O)[C@@H](O)CCCC(=O)O [Lipoxin A4] |  | 197.89 Å² |
| OC[C@H]1O[C@@H](O[C@H]2[C@H](O)[C@H](O)[C@H](O[C@H]3[C@H](O)[C@H](O)[C@H](O[C@H]4[C@H](O)[C@H](O)C(O)O[C@@H]4CO)O[C@@H]3CO)O[C@@H]2CO)[C@@H](O)[C@@H](O)[C@@H]1O (stereo partly specified) [Mannotetraose] |  | 234.12 Å² |
| CCCCCCCCCCCCCCCCCCCCCCCC(=O)OC [Methyl Tetracosanoate] | 187.54 Å² |  |
| CO[C@@H]1O[C@H](CO)[C@H](O)[C@H](O)[C@H]1O [Methyl beta-D-galactoside] |  | 149.97 Å² |
| CC(=O)N[C@@H]1C(O)O[C@H](CO)[C@@H](O)[C@@H]1O (stereo partly drawn) [N-Acetyl-D-mannosamine] |  | 154.76 Å² |
| CC(=O)N[C@@H](C)C(=O)O [N-Acetyl-L-alanine] |  | 138.07 Å² |
| O=C1CC(c2ccc(O)cc2)Oc2cc(O)cc(O)c21 (stereo unspecified) [Naringenin] | 167.96 Å² |  |
| NC(=O)c1ccc[n+]([C@@H]2O[C@H](COP(=O)(O)OP(=O)(O)OC[C@H]3O[C@@H](n4cnc5c(=O)nc[nH]c54)[C@H](O)[C@@H]3O)[C@@H](O)[C@H]2O)c1 [Nicotinamide Hypoxanthine Dinucleotide] | 222.79 Å² | 232.01 Å² |
| O=C(O)c1cccnc1 [Nicotinic Acid] | 128.35 Å² |  |
| CCCCCCCC/C=C\CCCCCCCC(=O)O [Oleic Acid] |  | 181.37 Å² |
| CC[C@H](NC(=O)CC[C@H](N)C(=O)O)C(=O)NCC(=O)O [Ophthalmic Acid] | 167.23 Å² | 165.7 Å² |
| CCCCCCCCCCC(=O)OC[C@H](COP(=O)([O-])OCC[N+](C)(C)C)OC(=O)CCCCCCCCCC [PC(11:0/11:0)] | 257.07 Å² | 260.59 Å² |
| CCCCCCC/C=C\CCCCCCCC(=O)OC[C@H](COP(=O)(O)OCCN)OC(=O)CCCCCCC/C=C\CCCCCCCCC [PE(18:1/18:1)] | 280.6 Å² and 284.02 Å² | 287.57 Å² and 288.54 Å² |

| Structure (SMILES) | collision cross section (N2) ([M+H]+) | collision cross section (N2) ([M+Na]+) |
| --- | --- | --- |
| OC[C@H]1O[C@H](OC[C@H]2OC(O)(CO)[C@@H](O)[C@@H]2O)[C@H](O)[C@@H](O)[C@@H]1O (stereo partly specified) [Palatinose] |  | 177.31 Å² |
| O=C1C=Cc2cccc3cccc1c23 [Perinaphthenon] | 134.59 Å² |  |
| NC(=O)CC[C@H](NC(=O)Cc1ccccc1)C(=O)O [Phenylacetyl L-Glutamine] | 160.93 Å² | 171.25 Å² |
| C[N+](C)(C)CCOP(=O)(O)O [Phosphocholine] | 138.54 Å² |  |
| COc1cc(O)c2c(c1)O[C@H](c1ccccc1)CC2=O [Pinostrobin] | 164.24 Å² |  |
| CCCCC[C@H](O)/C=C/[C@@H]1[C@@H](C/C=C\CCCC(=O)O)[C@@H](O)C[C@H]1O [Prostaglandin F2 alpha] |  | 207.33 Å² |
| CCCCC[C@H](O)/C=C/[C@@H]1[C@@H](C/C=C\CCCC(=O)O)[C@@H](O)C[C@H]1O [Prostaglandin F2a] |  | 205.7 Å² |
| CCCCC[C@H](O)/C=C/[C@@H]1[C@@H](C/C=C\CCCC(=O)O)[C@@H]2C[C@H]1OO2 [Prostaglandin H2] |  | 202.63 Å² |
| CO[C@H]1/C=C/O[C@@]2(C)Oc3c(C)c(O)c4c(c3C2=O)C(=O)/C(=C/NN2CCN(C)CC2)C(=C4O)NC(=O)/C(C)=C\C=C\[C@H](C)[C@H](O)[C@@H](C)[C@@H](O)[C@@H](C)[C@H](OC(C)=O)[C@@H]1C [Rifampicin] | 287.13 Å² | 285.07 Å² |
| C[S+](CC[C@H](N)C(=O)[O-])C[C@H]1O[C@@H](n2cnc3c(N)ncnc32)[C@H](O)[C@@H]1O (stereo partly drawn) [S-Adenosyl-L-methionine] | 186.46 Å² |  |
| CCCCCCSC[C@H](NC(=O)CC[C@H](N)C(=O)O)C(=O)NCC(=O)O [S-Hexyl-glutathione] | 203.2 Å² |  |
| C=C[C@H]1[C@H](O[C@@H]2O[C@H](CO)[C@@H](O)[C@H](O)[C@H]2O)OC=C(C(=O)OC)[C@H]1CC=O [Secologanin] |  | 191.96 Å² |
| O=C(O)C1=C[C@@H](O)[C@@H](O)[C@H](O)C1 [Shikimic Acid] | 149.5 Å² |  |
| CCCCCCCCCCCCCCCCCC(=O)O [Stearic Acid] |  | 191.83 Å² |
| O=C(O)CCC(=O)O [Succinic Acid] | 122.66 Å² |  |
| Nc1ccc(S(N)(=O)=O)cc1 [Sulfanilamide] | 156.07 Å² | 152.77 Å² |
| Cc1ncc(C[n+]2csc(CCOP(=O)(O)O)c2C)c(N)n1 [Thiamine Monophosphate] | 172.53 Å² |  |
| Cc1cn([C@H]2C[C@H](O)[C@@H](COP(=O)(O)O)O2)c(=O)[nH]c1=O [Thymidine 5'-Monophosphate] | 163.84 Å² | 169.74 Å² |
| O=P(O)(O)OC[C@H]1O[C@H](O[C@H]2O[C@H](CO)[C@@H](O)[C@H](O)[C@H]2O)[C@H](O)[C@@H](O)[C@@H]1O [Trehalose 6-Phosphate] |  | 192.43 Å² |
| C[n+]1cccc(C(=O)[O-])c1 [Trigonelline] | 126.37 Å² | 139.87 Å² |
